Results as given in ChEMBL document CHEMBL1201862, “PubChem BioAssay data set” (2004).
Active and inactive are the calls of the source. Cut-off read from the data, not from the text of the source: actives have a measured IC50 and inactives only a lower limit.

Target: Envelope glycoprotein gp160 (Human immunodeficiency virus 1, UniProt Q6QLK5)
Experiment: inhibitors of HIV fusion peptide binding, primary screen, biochemical, uHTS, fluorescence dequenching (AID 1986)

Sequence of Envelope glycoprotein gp160 (Q6QLK5 whole entry, the tested form may be a part): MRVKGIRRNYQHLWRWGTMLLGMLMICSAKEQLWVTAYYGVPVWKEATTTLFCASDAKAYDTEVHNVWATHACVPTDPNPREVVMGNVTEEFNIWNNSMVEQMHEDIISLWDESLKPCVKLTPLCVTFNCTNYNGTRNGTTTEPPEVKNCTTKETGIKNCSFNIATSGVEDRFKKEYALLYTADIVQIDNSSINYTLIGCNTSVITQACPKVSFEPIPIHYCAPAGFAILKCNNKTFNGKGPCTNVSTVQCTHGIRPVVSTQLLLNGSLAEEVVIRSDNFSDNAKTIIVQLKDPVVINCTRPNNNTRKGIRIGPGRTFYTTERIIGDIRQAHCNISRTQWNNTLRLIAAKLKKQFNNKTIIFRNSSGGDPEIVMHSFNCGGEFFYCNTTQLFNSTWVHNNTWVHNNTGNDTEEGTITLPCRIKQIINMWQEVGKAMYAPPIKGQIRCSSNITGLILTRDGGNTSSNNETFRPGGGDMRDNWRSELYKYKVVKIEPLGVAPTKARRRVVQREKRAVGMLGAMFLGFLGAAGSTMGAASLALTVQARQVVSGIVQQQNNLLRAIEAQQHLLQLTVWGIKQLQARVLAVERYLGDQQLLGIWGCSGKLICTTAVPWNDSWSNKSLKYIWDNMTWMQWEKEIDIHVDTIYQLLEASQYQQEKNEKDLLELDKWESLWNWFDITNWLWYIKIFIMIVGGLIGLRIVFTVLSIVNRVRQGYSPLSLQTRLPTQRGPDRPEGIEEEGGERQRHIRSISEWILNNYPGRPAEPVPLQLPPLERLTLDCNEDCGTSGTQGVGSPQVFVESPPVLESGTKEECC

In the case of `Cc1ccc(N2C(=O)/C(=C\Nc3ccccc3-c3nnc(S)nc3O)c3ccccc3C2=O)c(C)c1`, the IC50 is reported as 23.9 µM (active).
